The supplement of paper PMC10307832

What follows are cell lines tested with COc1cccc2c1C(=O)c1c(O)c3c(c(O)c1C2=O)C[C@@](O)(C(=O)CO)C[C@@H]3O[C@H]1C[C@H](N)[C@H](O)[C@H](C)O1 [Doxorubicin] + CC(=O)c1c(C)c2cnc(Nc3ccc(N4CCNCC4)cn3)nc2n(C2CCCC2)c1=O [Palbociclib] (partner 0.5 µM) (assay: relative viability (nuclei count vs DMSO), 5 days (fraction); higher = more cells survive). Details: first compound 0.01 µM.
Procedure, shortened: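 A single step with final 0.05% Triton X-100, 1% formaldehyde and 1 ug/ml Hoechst fixed the cells and stained nuclei 5 days after treatment. Lung cancer cell lines in 1536-well plates had been treated by pin tool the day after seeding with one drug alone or a fixed anchor-drug dose plus five library-drug doses (not always all listed) in √10 steps, and nuclei were counted on 4× images. Relative viability is the ratio of nuclei in treated wells to nuclei in vehicle wells, taken as the median of duplicate plates.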

| Cell Line | relative viability |
| --- | --- |
| NCI-H322M | 0.486 |
| HCC-78 | 0.449 |
| NCI-H522 | 1.08 |
| LXF-289 | 0.549 |
| BEN | 0.46 |
| HARA | 0.259 |
| SW 900 | 0.543 |
| HCC-827 | 0.484 |
| NCI-H520 | 0.183 |
| LOU-NH91 | 0.564 |
| NCI-H2023 | 0.254 |
| A-427 | 0.517 |
| NCI-H647 | 0.412 |
| PC-3 [JPC-3] | 0.544 |
| NCI-H1755 | 0.434 |
| NCI-H650 | 0.325 |
| NCI-H3122 | 0.187 |
| NCI-H441 | 0.229 |
| NCI-H1395 | 0.663 |

| Cell Line | relative viability |
| --- | --- |
| 201T | 0.345 |
| NCI-H1975 | 0.501 |
| HOP-62 | 0.494 |
| NCI-H2405 | 0.51 |
| NCI-H1355 | 0.388 |
| NCI-H838 | 0.229 |
| CAL-12T | 0.486 |
| NCI-H1666 | 0.626 |
| EPLC-272H | 0.301 |
| NCI-H2347 | 0.38 |
| NCI-H1915 | 0.549 |
| NCI-H1437 | 0.294 |
| NCI-H460 | 0.0853 |
| NCI-H1792 | 0.651 |
| NCI-H2085 | 0.461 |
| HCC-15 | 0.522 |
| NCI-H1944 | 0.337 |
| EKVX | 0.342 |

Same assay, conditions: first compound 0.03162 µM

| Cell Line | relative viability |
| --- | --- |
| NCI-H2342 | 0.496 |
| RERF-LC-KJ | 0.542 |
| NCI-H1651 | 0.449 |
| NCI-H1734 | 0.263 |
| NCI-H2009 | 0.0594 |
| SK-LU-1 | 0.333 |
| SW 1573 | 0.0939 |
| LCLC-97TM1 | 0.199 |
| NCI-H661 | 0.36 |
| NCI-H2228 | 0.301 |
| EMC-BAC-2 | 0.383 |
| NCI-H2087 | 0.176 |
| HCC-44 | 1.03 |
| NCI-H727 | 0.577 |
| LK-2 | 0.487 |
| NCI-H2126 | 0.345 |
| NCI-H1648 | 0.245 |
| NCI-H1793 | 0.258 |
| H3255 | 0.348 |
| COR-L23 | 0.181 |
| COR-L 105 | 0.37 |

| Cell Line | relative viability |
| --- | --- |
| LC-2-ad | 0.517 |
| LU99A | 0.41 |
| ChaGo-K-1 | 0.939 |
| NCI-H358 | 0.0838 |
| NCI-H322M | 0.465 |
| HCC-78 | 0.488 |
| NCI-H522 | 0.89 |
| LXF-289 | 0.634 |
| BEN | 0.441 |
| HARA | 0.236 |
| SW 900 | 0.452 |
| HCC-827 | 0.465 |
| NCI-H520 | 0.175 |
| LOU-NH91 | 0.526 |
| NCI-H2023 | 0.169 |
| A-427 | 0.449 |
| NCI-H647 | 0.15 |
| PC-3 [JPC-3] | 0.518 |
| NCI-H1755 | 0.474 |
| NCI-H650 | 0.293 |
| NCI-H3122 | 0.14 |

| Cell Line | relative viability |
| --- | --- |
| NCI-H441 | 0.153 |
| NCI-H1395 | 0.671 |
| 201T | 0.349 |
| NCI-H1975 | 0.383 |
| HOP-62 | 0.434 |
| NCI-H2405 | 0.463 |
| NCI-H1355 | 0.38 |
| NCI-H838 | 0.222 |
| CAL-12T | 0.279 |
| NCI-H1666 | 0.565 |
| EPLC-272H | 0.328 |
| NCI-H2347 | 0.394 |
| NCI-H1915 | 0.483 |
| NCI-H1437 | 0.295 |
| NCI-H460 | 0.041 |
| NCI-H1792 | 0.542 |
| NCI-H2085 | 0.53 |
| HCC-15 | 0.681 |
| NCI-H1944 | 0.272 |
| EKVX | 0.31 |

Same assay, conditions: first compound 0.1 µM

| Cell Line | relative viability |
| --- | --- |
| NCI-H2342 | 0.496 |
| RERF-LC-KJ | 0.653 |
| NCI-H1651 | 0.483 |
| NCI-H1734 | 0.344 |
| NCI-H2009 | 0.168 |
| SK-LU-1 | 0.355 |
| SW 1573 | 0.0476 |
| LCLC-97TM1 | 0.238 |
| NCI-H661 | 0.34 |
| NCI-H2228 | 0.184 |
| EMC-BAC-2 | 0.403 |
| NCI-H2087 | 0.227 |
| HCC-44 | 0.933 |
| NCI-H727 | 0.62 |
| LK-2 | 0.515 |
| NCI-H2126 | 0.386 |
| NCI-H1648 | 0.258 |
| NCI-H1793 | 0.324 |
| H3255 | 0.263 |
| COR-L23 | 0.106 |
| COR-L 105 | 0.327 |

| Cell Line | relative viability |
| --- | --- |
| LC-2-ad | 0.495 |
| LU99A | 0.417 |
| ChaGo-K-1 | 0.974 |
| NCI-H358 | 0.1 |
| NCI-H322M | 0.465 |
| HCC-78 | 0.453 |
| NCI-H522 | 1.04 |
| LXF-289 | 0.607 |
| BEN | 0.465 |
| HARA | 0.263 |
| SW 900 | 0.519 |
| HCC-827 | 0.593 |
| NCI-H520 | 0.203 |
| LOU-NH91 | 0.416 |
| NCI-H2023 | 0.0764 |
| A-427 | 0.363 |
| NCI-H647 | 0.239 |
| PC-3 [JPC-3] | 0.522 |
| NCI-H1755 | 0.468 |
| NCI-H650 | 0.326 |
| NCI-H3122 | 0.188 |

| Cell Line | relative viability |
| --- | --- |
| NCI-H441 | 0.195 |
| NCI-H1395 | 0.575 |
| 201T | 0.354 |
| NCI-H1975 | 0.324 |
| HOP-62 | 0.486 |
| NCI-H2405 | 0.447 |
| NCI-H1355 | 0.392 |
| NCI-H838 | 0.184 |
| CAL-12T | 0.174 |
| NCI-H1666 | 0.568 |
| EPLC-272H | 0.29 |
| NCI-H2347 | 0.506 |
| NCI-H1915 | 0.543 |
| NCI-H1437 | 0.26 |
| NCI-H460 | 0.007 |
| NCI-H1792 | 0.558 |
| NCI-H2085 | 0.512 |
| HCC-15 | 0.488 |
| NCI-H1944 | 0.353 |
| EKVX | 0.374 |
